The values below are quoted from earlier work in paper PMC12385607 (ACS medicinal chemistry letters, 2025).

The conditions of series [1]: 30 min post-oral administration.
The conditions of series [2]: orally available 2-PMPA prodrugs.

`O=C(O)CCC(CP(=O)(O)O)C(=O)O` (stereo not drawn) [2-PMPA, 2-(phosphonomethyl)pentanedioic acid]: the “Clearance from plasma after intravenous administration (in words)” value is “quickly cleared from the plasma”. Further, the “Plasma concentration of 2-PMPA after oral administration of 2-PMPA itself” value in series [1] is recorded as ~ 250 nM.

For `Cc1oc(=O)oc1COC(=O)CCC(CP(=O)(OCc1oc(=O)oc1C)OCc1oc(=O)oc1C)C(=O)OCc1oc(=O)oc1C` (stereo not drawn) [tetra-ODOL-2-PMPA], in series [2], the “Brain distribution of 2-PMPA (in words)” value is reported as “limited brain distribution”.
